Consider seven compounds from US5362634A, “Process for producing A83543 compounds” (DowElanco, priority 1991, dated 1994).

Data set [1] has as its system adult stable fly (ASF). Nature of the data set: Guinea pig systemic test, adult stable fly. Format: in vivo, Stomoxys calcitrans. The procedure: (§1) Adult guinea pigs are used in this test system. The compounds to be tested are dissolved in aqueous polyvinyl pyrrolidone or in polyethylene glycol 200, and an appropriate amount of the solution is administered either orally or by intraperitoneal injection.
(§2) Blood is drawn from the guinea pigs at 30 minutes except as noted, and the samples of blood are centrifuged. Dental wicks are saturated with the blood serum, and then exposed in Petri dishes to adult stable flies; blow fly larvae are exposed in test tubes. After 24 and 48 hours, the insects are examined, and the number of dead are counted. The results of the tests are recorded as the percent of the insects which are killed.

Data set [2] deals with fourth instar yellow fever mosquito larvae. In words: whole plant or invertebrate. Details: species or system Aedes aegypti. Conditions: 24 hr; for mortality at 0.312 ppm: Aedes aegypti, read-out: Percent Control. An excerpt: (§3) The A83543 components were active against yellow fever mosquito (Aedes aegypti) larvae in standard in vitro mosquito larvicide tests.
^a At 24 hr when treated at 0.312 ppm

For data set [3], the system named is neonate CBW (cotton bollworm) larvae. Nature of the data set: Percent control of neonate CBW larvae by A83543 components, topical pipet method. The format is in vivo, Heliothis zea. Conditions: for mortality at 0.5 ppm / mortality at 1 ppm / mortality at 5 ppm / mortality at 10 ppm: 24 h, read-out: Percent Control. The procedure:
Each test compound was formulated by dissolving the compound in an acetone/alcohol (1:1) mixture containing 23 g of "Toximul R" (sulfonate/nonionic emulsifier blend) and 13 g of "Toximul S" (sulfonate/nonionic emulsifier blend) per liter. These mixtures were then diluted with water to give the indicated concentrations.
Additional insects were evaluated using similar formulations and evaluation procedures, with the exceptions noted.
After standard exposure periods, percent mortality was evaluated. The following abbreviations are used:
^1 Treatments with the same letter in parentheses are similar at the
^2 Topical pipet method with 20 larve/replicate and 4 replicates; one
day between treatment and observation.

Data set [4] has as its system adult stable fly (ASF). In words: In vitro efficacy, exposure of ASF to chemically added serum samples. Conditions: Stomoxys calcitrans, read-out: Percent insect mortality. An excerpt: (§4) ^1 Percent insect mortality following 24 to 48 hrs. in vitro exposure
(§5) to chemically added serum samples

For data set [5], the system named is blow fly larvae (LBF). In words: In vitro efficacy, exposure of LBF to chemically added serum samples.
From the text: as §4, §5

Data set [6] relates to blow fly larvae (LBF). Nature of the data set: Guinea pig systemic test, blow fly larvae. The format is in vivo. The method, then: as §1, §2
The subject of data set [7] is CRW (Southern corn rootworm). In words: LC50 against CRW. Format: in vivo, Diabrotica undecimpunctata howardi. Conditions: rate in soil by wt. An excerpt: (§6) ^a Corn rootworm rate in soil by wt.; all others as spray
In another data set the test system is Spodoptera eridania. In words: Outdoor pot tests against Southern armyworm. Format: in vivo. An excerpt: Table XV compares the effectiveness and persistence of A83543A treatment with that of methomyl in outdoor pot tests against Southern armyworm.
The next data set has as its system Grain Aphid. Nature of the data set: LC50 against Grain Aphid. Format: in vivo. Conditions: Sitobion avenae; spray concentration.
From the text: as §6

For another data set, the system named is CBW (cotton bollworm). Nature of the data set: LC50 against CBW, contact. Format: in vivo, Heliothis zea. As to conditions: spray concentration.
From the text: as §6

Data set [8] relates to SM (twospotted spider mite). Nature of the data set: LC50 against SM. Conditions: Tetranychus urticae; spray concentration. The format is in vivo.
From the text: as §6

The next data set has as its system SAW (Southern armyworm). In words: LC50 against SAW, foliar. The format is in vivo. Conditions: Spodoptera eridania, spray concentration.
From the text: as §6

The subject of data set [9] is first instar yellow fever mosquito larvae. In words: In vitro mosquito larvicide test, first instar. Conditions: Aedes aegypti, 24 h, lowest concentration with 100% inhibition after 24 hr, microtiter plates; read-out: Minimal Inhibitory Concentration.
From the text: as §3

[10] abbreviates: 0.5 ppm, topical pipet, one day.

Converted amounts (≈) assume the structure as drawn. Like-named read-outs stand apart in the source and are kept apart here.

On to `CC[C@H]1CCC[C@H](O[C@H]2CC[C@H](N(C)C)[C@@H](C)O2)[C@@H](C)C(=O)C2=C[C@@H]3[C@@H](C=C(C)[C@@H]4C[C@@H](O[C@@H]5O[C@@H](C)[C@H](OC)[C@@H](OC)[C@H]5OC)C[C@@H]34)[C@@H]2CC(=O)O1` [A83543D], for which the “% Activity ASF” value in the data set with adult stable fly (ASF) [1] (10 mg/kg IP, bled 30 min) is listed as 0%; with adult stable fly (ASF) [1] (10 mg/kg IP, bled 5 hr) it was 0%; in the data set on adult stable fly (ASF) [1] (10 mg/kg IP, bled 24 hr), 10%; in the data set with adult stable fly (ASF) [1] (30 mg/kg IP, bled 30 min), 0%; in the data set on adult stable fly (ASF) [1] (30 mg/kg IP, bled 5 hr) it was 0%; in the data set on adult stable fly (ASF) [1] (30 mg/kg IP, bled 24 hr), 0%. Moreover, the “% Activity ASF” value in the data set with adult stable fly (ASF) [1] (50 mg/kg IP, bled 30 min) amounted to 0%; in the data set on adult stable fly (ASF) [1] (50 mg/kg IP, bled 5 hr) it was 0%; in the data set with adult stable fly (ASF) [1] (50 mg/kg IP, bled 24 hr), 0%. Also, the figures for the mortality at 0.312 ppm (in data set [2]; with adult stable fly (ASF) [4] (24 hr); in the data set with adult stable fly (ASF) [4] (48 hr)) were 30%, 0% and 0%, respectively. The mortality at 0.5 ppm in data set [3] (topical) is 58%. Further, the mortality at 1 ppm in [3] (topical) is 90%. In addition, the mortality at 5 ppm in [3] (topical) was 100%; in the data set on adult stable fly (ASF) [4] (24 hr), 20%; in the data set on adult stable fly (ASF) [4] (48 hr) it was 90%. The mortality at 10 ppm in [3] (topical) worked out at 100%; with adult stable fly (ASF) [4] (24 hr), 50%; with adult stable fly (ASF) [4] (48 hr), 100%. The mortality at 0.625 ppm turned out to be 0% with adult stable fly (ASF) [4] (24 hr) and 60% in the data set with adult stable fly (ASF) [4] (48 hr). Also, the figures for the mortality at 1.25 ppm in the data set on adult stable fly (ASF) [4] (24 hr) and in the data set on adult stable fly (ASF) [4] (48 hr) were 10% and 90%, respectively. Moreover, the mortality at 2.5 ppm in the data set on adult stable fly (ASF) [4] (24 hr) amounted to 20%; in the data set on adult stable fly (ASF) [4] (48 hr) it was 100%. Moreover, the Percent insect mortality was found to be 25% in the data set with blow fly larvae (LBF) [5] (0.312 ppm, 24 hr); 25% with blow fly larvae (LBF) [5] (0.312 ppm, 48 hr); 50% with blow fly larvae (LBF) [5] (0.625 ppm, 24 hr); 75% in the data set with blow fly larvae (LBF) [5] (0.625 ppm, 48 hr); 80% in the data set on blow fly larvae (LBF) [5] (1.25 ppm, 24 hr); 90% in the data set on blow fly larvae (LBF) [5] (1.25 ppm, 48 hr). Moreover, the Percent insect mortality in the data set with blow fly larvae (LBF) [5] (2.5 ppm, 24 hr) is listed as 90%; in the data set on blow fly larvae (LBF) [5] (2.5 ppm, 48 hr), 100%; in the data set on blow fly larvae (LBF) [5] (5 ppm, 24 hr), 90%; in the data set on blow fly larvae (LBF) [5] (5 ppm, 48 hr) it was 100%; with blow fly larvae (LBF) [5] (10 ppm, 24 hr), 100%; with blow fly larvae (LBF) [5] (10 ppm, 48 hr), 100%. Besides, the “% Activity LBF” value in the data set on blow fly larvae (LBF) [6] (10 mg/kg IP, bled 30 min) amounted to 0%; in the data set on blow fly larvae (LBF) [6] (10 mg/kg IP, bled 5 hr), 0%; with blow fly larvae (LBF) [6] (10 mg/kg IP, bled 24 hr) it was 0%; in the data set with blow fly larvae (LBF) [6] (30 mg/kg IP, bled 30 min), 0%; with blow fly larvae (LBF) [6] (30 mg/kg IP, bled 5 hr) it was 0%; in the data set with blow fly larvae (LBF) [6] (30 mg/kg IP, bled 24 hr), 0%. For the same compound, the “% Activity LBF” value is listed as 75% in the data set with blow fly larvae (LBF) [6] (50 mg/kg IP, bled 30 min); 0% in the data set with blow fly larvae (LBF) [6] (50 mg/kg IP, bled 5 hr); 25% in the data set with blow fly larvae (LBF) [6] (50 mg/kg IP, bled 24 hr).
For orientation: LC50 means the concentration that kills 50% of the test population. Turning to `CNC(=O)ON=C(C)SC` [methomyl, reference compound], the LC50 in data set [7] amounted to 6 µg/mL (≈ 37 µM); with Grain Aphid, 5.4 µg/mL (≈ 33.3 µM); with CBW (cotton bollworm), 14.5 µg/mL (≈ 89.4 µM); in [8], 71.4 µg/mL (≈ 440 µM); with SAW (Southern armyworm) it was 11.4 µg/mL (≈ 70.3 µM). For the same compound, the mortality at 63 ppm turned out to be 100% with Spodoptera eridania (24 h, 1 day after treatment); 20% in the data set with Spodoptera eridania (120 h, 5 days after treatment); 15% in the data set with Spodoptera eridania (168 h, 7 days after treatment); 0% in the data set on Spodoptera eridania (336 h, 14 days after treatment). The mortality at 125 ppm in the data set with Spodoptera eridania (24 h, 1 day after treatment) was 100%; in the data set on Spodoptera eridania (120 h, 5 days after treatment), 35%; in the data set with Spodoptera eridania (168 h, 7 days after treatment), 40%; in the data set on Spodoptera eridania (336 h, 14 days after treatment) it was 20%. Besides, the mortality at 250 ppm in the data set on Spodoptera eridania (24 h, 1 day after treatment) is 100%; with Spodoptera eridania (120 h, 5 days after treatment), 85%; with Spodoptera eridania (168 h, 7 days after treatment), 45%; with Spodoptera eridania (336 h, 14 days after treatment), 40%. The mortality at 500 ppm with Spodoptera eridania (24 h, 1 day after treatment) was found to be 100%; with Spodoptera eridania (120 h, 5 days after treatment) it was 90%; in the data set with Spodoptera eridania (168 h, 7 days after treatment), 85%; with Spodoptera eridania (336 h, 14 days after treatment), 60%.
In the case of `CC[C@H]1CCC[C@H](O[C@H]2CC[C@H](N)[C@@H](C)O2)[C@@H](C)C(=O)C2=C[C@@H]3[C@@H](C=C[C@@H]4C[C@@H](O[C@@H]5O[C@@H](C)[C@H](OC)[C@@H](OC)[C@H]5OC)C[C@@H]34)[C@@H]2CC(=O)O1` [A83543C], the mortality at 0.312 ppm in data set [2] was 60%. The mortality at 0.5 ppm in data set [3] (setting [10]) turned out to be 5%. For the same compound, the mortality at 1 ppm in data set [3] (1 ppm, topical pipet, one day) is 85%. In addition, in data set [3] (5 ppm, topical pipet, one day), the mortality at 5 ppm stood at 93%. The mortality at 10 ppm in data set [3] (10 ppm, topical pipet, one day) was 100%. In addition, the MIC in data set [9] was 0.031 µg/mL (≈ 0.044 µM).
For the compound `CO[C@@H]1[C@@H](OC)[C@H](C)O[C@@H](O[C@H]2C[C@H]3[C@@H]4C=C5C(=O)[C@H](C)[C@@H](O[C@H]6CC[C@H](N(C)C)[C@@H](C)O6)CCC[C@H](C)OC(=O)C[C@H]5[C@@H]4C=C[C@@H]3C2)[C@@H]1OC` [A83543E], the mortality at 0.312 ppm in [2] is 80%. In data set [3] (topical), the mortality at 0.5 ppm was 28%, the mortality at 1 ppm came to 58%, the mortality at 5 ppm came to 100% and the mortality at 10 ppm came out at 100%.
Turning to `CC[C@H]1CCC[C@H](O[C@H]2CC[C@H](N(C)C)[C@@H](C)O2)CC(=O)C2=C[C@@H]3[C@@H](C=C[C@@H]4C[C@@H](O[C@@H]5O[C@@H](C)[C@H](OC)[C@@H](OC)[C@H]5OC)C[C@@H]34)[C@@H]2CC(=O)O1` [A83543F], the mortality at 0.312 ppm in [2] amounted to 0%. Besides, in [3] (setting [10]), the mortality at 0.5 ppm was 0%. Also, the mortality at 1 ppm in data set [3] (1 ppm, topical pipet, one day) is 0%. Also, the mortality at 5 ppm in data set [3] (5 ppm, topical pipet, one day) was 0%. Further, in data set [3] (10 ppm, topical pipet, one day), the mortality at 10 ppm was 95%.
For `CC[C@H]1CCC[C@H](O[C@H]2CC[C@@H](N(C)C)[C@@H](C)O2)[C@@H](C)C(=O)C2=C[C@@H]3[C@@H](C=C[C@@H]4C[C@@H](O[C@@H]5O[C@@H](C)[C@H](OC)[C@@H](OC)[C@H]5OC)C[C@@H]34)[C@@H]2CC(=O)O1` [A83543G], the “Percent Control” value was found to be 0% in data set [2] (0.312 ppm); 0% in data set [3] (0.5 ppm, topical pipet, one day, 1440 min); 0% in data set [3] (1 ppm, topical pipet, one day); 20% in [3] (5 ppm, topical pipet, one day, 1440 min); 80% in data set [3] (10 ppm, topical pipet, one day, 1440 min).
For the compound `CC[C@H]1CCC[C@H](O[C@H]2CC[C@H](NC)[C@@H](C)O2)[C@@H](C)C(=O)C2=C[C@@H]3[C@@H](C=C[C@@H]4C[C@@H](O[C@@H]5O[C@@H](C)[C@H](OC)[C@@H](OC)[C@H]5OC)C[C@@H]34)[C@@H]2CC(=O)O1` [A83543B], the mortality at 0.312 ppm in data set [2] amounted to 60%. In addition, in data set [3] (setting [10]), the mortality at 0.5 ppm came to 35%. Moreover, the mortality at 1 ppm in data set [3] (1 ppm, topical pipet, one day) came to 80%. Also, the mortality at 5 ppm in data set [3] (5 ppm, topical pipet, one day) was found to be 100%. In addition, the mortality at 10 ppm in [3] (10 ppm, topical pipet, one day) is 100%. The MIC in [9] amounted to 0.016 µg/mL (≈ 0.0223 µM).
